Where two headings read alike, the source gives them in different places.
Key:
Format in all cases: cell-based
[1] = test system: dengue virus type 2 in Huh7 hepatoblastoma cells; assay: Dengue Virus-2 Huh-7 EC50 (Example W); details: MOI of 0.07, CPE, neutral red dye, read-out: Dengue Virus-2 Huh-7 EC50 (nM) (per Ex. W)
Protocol: Huh7 hepatoblastoma cells were seeded onto 96-well plates and incubated at 37° C. with 5% CO2 overnight. The plates were seeded at a cell concentration that will yield >70% confluent monolayers in each well after overnight incubation. Eight 3-fold serial dilutions of compounds were diluted in test media (MEM supplemented with 2% FBS and 50 μg/mL gentamicin). The highest test compound concentration was 50 μg/mL. 100 μL of each concentration was added to 5 test wells on the 96-well plate. Of these 5 test wells, 3 wells of each dilution were infected with dengue virus type 2, diluted in test media (approximately 2000 CCID50 per well for an MOI of 0.07). Test medium (100 μL) with no virus was added to 2 wells to represent the uninfected cytotoxicity controls. Six additional infected wells received 100 μL media alone as untreated virus controls. Further, 100 μL of media alone was added to 6 uninfected wells to serve as uninfected, untreated controls. Cultures were incubated at 37° C.+5% CO2 until >80% CPE is observed. After cytopathic effect (CPE) is observed microscopically, 0.011% neutral red dye was added for approximately 2 hours. The neutral red dye was removed and wells were rinsed once with PBS to remove residual, unincorporated dye. A 50:50 Sorensen citrate buffer/ethanol solution was added and incubated at room temperature for >30 minutes with agitation, followed by measurement of neutral red dye using a spectrophotometer at 540 nm. The resulting optical density measurement was converted to percent signal of the infected, untreated cell control normalizing to virus controls. EC50 and CC50 values were determined by linear regression analysis.

[2] = HCV Replicon 1B CC50, calcein AM (Example Q); details: calcein AM fluorescence, read-out: HCV Replicon 1B CC50 (nM) (per Ex. Q)
Protocol: Compounds were serially diluted in ten steps of 1:3 dilutions in 384-well plates. All serial dilutions were performed in four replicates per compound within the same 384-well plate. An HCV protease inhibitor ITMN-191 at […] was added as a control of 100% inhibition of HCV replication while puromycin at 10 mM was included as a control of 100% cytotoxicity. To each well of a black polystyrene 384-well plate (Greiner Bio-one, Monroe, NC), 90 μL of cell culture medium (without Geneticin) containing 2000 suspended HCV replicon cells was added with a Biotek μFlow workstation. For compound transfer into cell culture plates, 0.4 μL of compound solution from the compound serial dilution plate was transferred to the cell culture plate on a Biomek FX workstation. The DMSO concentration in the final assay wells was 0.44%. The plates were incubated for 3 days at 37° C. with 5% CO2 and 85% humidity. The HCV replicon assay was a multiplex assay, able to assess both cytotoxicity and antireplicon activity from the same well. The CC50 assay was performed first. The media in the 384-well cell culture plate was aspirated, and the wells were washed four times with 100 μL of PBS each, using a Biotek ELX405 plate washer. A volume of 50 μL of a solution containing 400 nM calcein AM (Anaspec, Fremont, CA) in 1×PBS was added to each well of the plate with a Biotek μFlow workstation. The plate was incubated for 30 min at room temperature before the fluorescence signal (excitation 490 nm, emission 520 nm) was measured with a Perkin-Elmer Envision plate reader. The EC50 assay was performed in the same wells as the CC50 assay. The calcein-PBS solution in the 384-well cell culture plate was aspirated with a Biotek ELX405 plate washer. A volume of 20 μL of Dual-Glo luciferase buffer (Promega, Madison, WI) was added to each well of the plate with a Biotek μFlow Workstation. The plate was incubated for 10 min at room temperature. A volume of 20 μL of a solution containing a 1:100 mixture of Dual-Glo Stop & Glo substrate (Promega, Madison, WI) and Dual-Glo Stop & Glo buffer (Promega, Madison, WI) was added to each well of the plate with a Biotek μFlow Workstation. The plate was then incubated at room temperature for 10 min before the luminescence signal was measured with a Perkin-Elmer Envision Plate Reader.

[3] = test system: Recombinant Respiratory Syncytial virus strain A2 containing the firefly luciferase reporter (RSV-Fluc) in NHBE cells; assay: RSV NHBE FLuc EC50 (Example I); details: human respiratory syncytial virus, 72 h, read-out: RSV NHBE FLuc EC50 (nM) (per Ex. I)
Summary of the method: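 NHBE primary cells (passage 2-4) treated with threefold compound dilutions and infected with RSV A2 firefly-luciferase reporter virus at MOI 0.1; 3 days at 37° C, 5% CO2. ONE-Glo luminescence normalized to uninfected and infected DMSO controls; EC50 from non-linear regression, duplicates with two technical repeats.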

SMILES | EC50 [1] [nM] | CC50 at 3 days ([2]; HCV replicon cells) [nM] | CC50 at 3 days ([2]; HCV replicon cells (1B)) [nM] | EC50 [3] [nM]
CCCCCCCCCCCCCCCCCCC[C@H](COP(=O)(O)OC[C@@]1(C#N)O[C@@H](c2ccc3c(N)ncnn23)[C@H](O)[C@@H]1O)OCc1ccc(-n2cncn2)c(C#N)c1 [Compound 30, ((2R,3S,4R)-5-(4-aminopyrrolo[2,1-f][1,2,4]triazin-7-yl)-2-cyano-3,4-dihydroxytetrahydrofuran-2-yl)methyl ((R)-2-((3-cyano-4-(1H-1,2,4-triazol-1-yl)benzyl)oxy)henicosyl) hydrogen phosphate] | 1200 | > 44400 | – | –
CCCCCCCCCCCCCCCCCCCC[C@@H](COP(=O)(O)OC[C@@]1(C#N)O[C@@H](c2ccc3c(N)ncnn23)[C@H](O)[C@@H]1O)OCc1cc(F)cc(C#N)c1 [Compound 70, ((2R,3S,4R)-5-(4-aminopyrrolo[2,1-f][1,2,4]triazin-7-yl)-2-cyano-3,4-dihydroxytetrahydrofuran-2-yl)methyl ((S)-2-((3-cyano-5-fluorobenzyl)oxy)docosyl) hydrogen phosphate] | 12000 | > 44400 | – | –
CCCCCCCCCCCCCCCCCC[C@@H](COP(=O)(O)OC[C@@]1(C#N)O[C@@H](c2ccc3c(N)ncnn23)[C@H](O)[C@@H]1O)OCc1cc(F)cc(C#N)c1 [Compound 37, ((2R,3S,4R)-5-(4-aminopyrrolo[2,1-f][1,2,4]triazin-7-yl)-2-cyano-3,4-dihydroxytetrahydrofuran-2-yl)methyl ((S)-2-((3-cyano-5-fluorobenzyl)oxy)icosyl) hydrogen phosphate] | 11000 | – | > 44400 | 276
CCCCCCCCCCCCCCCCCCOC[C@H](COP(=O)(O)OC[C@@]1(C#N)O[C@@H](c2ccc3c(N)ncnn23)[C@H](O)[C@@H]1O)OCc1ccc(C#N)c(Cl)c1 [Compound 7, ((2R,3S,4R,5S)-5-(4-aminopyrrolo[2,1-f][1,2,4]triazin-7-yl)-2-cyano-3,4-dihydroxytetrahydrofuran-2-yl)methyl ((R)-2-((3-chloro-4-cyanobenzyl)oxy)-3-(octadecyloxy)propyl) hydrogen phosphate] | 8700 | – | > 44400 | 113
CCCCCCCCCCCCCCCCCCOC[C@H](COP(=O)(O)OC[C@@]1(C#N)O[C@@H](c2ccc3c(N)ncnn23)[C@H](O)[C@@H]1O)OCc1cc(F)cc(C#N)c1 [Compound 1, ((2R,3S,4R,5S)-5-(4-aminopyrrolo[2,1-f][1,2,4]triazin-7-yl)-2-cyano-3,4-dihydroxytetrahydrofuran-2-yl)methyl ((R)-2-((3-cyano-5-fluorobenzyl)oxy)-3-(octadecyloxy)propyl) hydrogen phosphate] | 9700 | – | > 44400 | 104
CCCCCCCCCCCCCCCCC[C@@H](COP(=O)(O)OC[C@@]1(C#N)O[C@@H](c2ccc3c(N)ncnn23)[C@H](O)[C@@H]1O)OCc1cc(F)cc(C#N)c1 [Compound 74, ((2R,3S,4R)-5-(4-aminopyrrolo[2,1-f][1,2,4]triazin-7-yl)-2-cyano-3,4-dihydroxytetrahydrofuran-2-yl)methyl ((S)-2-((3-cyano-5-fluorobenzyl)oxy)nonadecyl) hydrogen phosphate] | 10000 | > 44400 | – | –
CCCCCCCCCCCCCCCCCC[C@H](COP(=O)(O)OC[C@@]1(C#N)O[C@@H](c2ccc3c(N)ncnn23)[C@H](O)[C@@H]1O)OCc1cc(Cl)cc(C#N)c1 [Compound 81, ((2R,3S,4R,5S)-5-(4-aminopyrrolo[2,1-f][1,2,4]triazin-7-yl)-2-cyano-3,4-dihydroxytetrahydrofuran-2-yl)methyl ((R)-2-((3-chloro-5-cyanobenzyl)oxy)icosyl) hydrogen phosphate] | – | – | > 44400 | –
CCCCCCCCCCCCCCCC[C@@H](COP(=O)(O)OC[C@@]1(C#N)O[C@@H](c2ccc3c(N)ncnn23)[C@H](O)[C@@H]1O)OCc1cc(F)cc(C#N)c1 [Compound 79, ((2R,3S,4R,5S)-5-(4-aminopyrrolo[2,1-f][1,2,4]triazin-7-yl)-2-cyano-3,4-dihydroxytetrahydrofuran-2-yl)methyl ((S)-2-((3-cyano-5-fluorobenzyl)oxy)octadecyl) hydrogen phosphate] | – | – | > 44400 | –
CCCCCCCCCCCCCCCC[C@H](COP(=O)(O)OC[C@@]1(C#N)O[C@@H](c2ccc3c(N)ncnn23)[C@H](O)[C@@H]1O)OCc1cc(F)cc(C#N)c1 [Compound 78, ((2R,3S,4R,5S)-5-(4-aminopyrrolo[2,1-f][1,2,4]triazin-7-yl)-2-cyano-3,4-dihydroxytetrahydrofuran-2-yl)methyl ((R)-2-((3-cyano-5-fluorobenzyl)oxy)octadecyl) hydrogen phosphate] | – | – | > 44400 | –
CCCCCCCCCCCCCCCCCCOC[C@H](COP(=O)(O)OC[C@@]1(C#N)O[C@@H](c2ccc3c(N)ncnn23)[C@H](O)[C@@H]1O)Oc1cccc(C#N)n1 [Compound 21, ((2R,3S,4R,5S)-5-(4-aminopyrrolo[2,1-f][1,2,4]triazin-7-yl)-2-cyano-3,4-dihydroxytetrahydrofuran-2-yl)methyl ((R)-2-((6-cyanopyridin-2-yl)oxy)-3-(octadecyloxy)propyl) hydrogen phosphate] | – | – | > 44400 | 41
CCCCCCCCCCCCCCCCCCOC[C@@H](COP(=O)(O)OC[C@@]1(C#N)O[C@@H](c2ccc3c(N)ncnn23)[C@H](O)[C@@H]1O)Oc1ccc(C#N)nc1 [Compound 72, ((2R,3S,4R,5S)-5-(4-aminopyrrolo[2,1-f][1,2,4]triazin-7-yl)-2-cyano-3,4-dihydroxytetrahydrofuran-2-yl)methyl ((S)-2-((6-cyanopyridin-3-yl)oxy)-3-(octadecyloxy)propyl) hydrogen phosphate] | 2400 | > 44400 | – | –
CCCCCCCCCCCCCCCCCCOC[C@H](COP(=O)(O)OC[C@@]1(C#N)O[C@@H](c2ccc3c(N)ncnn23)[C@H](O)[C@@H]1O)OCc1cccc(C#N)n1 [Compound 68, ((2R,3S,4R)-5-(4-aminopyrrolo[2,1-f][1,2,4]triazin-7-yl)-2-cyano-3,4-dihydroxytetrahydrofuran-2-yl)methyl ((R)-2-((6-cyanopyridin-2-yl)methoxy)-3-(octadecyloxy)propyl) hydrogen phosphate] | – | > 44400 | – | 36
CCCCCCCCCCCCCCCCCCC[C@H](COP(=O)(O)OC[C@@]1(C#N)O[C@@H](c2ccc3c(N)ncnn23)[C@H](O)[C@@H]1O)OCc1cc(Cl)cc(C#N)c1 [Compound 82, ((2R,3S,4R,5S)-5-(4-aminopyrrolo[2,1-f][1,2,4]triazin-7-yl)-2-cyano-3,4-dihydroxytetrahydrofuran-2-yl)methyl ((R)-2-((3-chloro-5-cyanobenzyl)oxy)henicosyl) hydrogen phosphate] | – | – | > 44400 | –

From US20250034182A1, “PHOSPHOLIPID COMPOUNDS AND METHODS OF MAKING AND USING THE SAME” (priority 2021, published 2025)
